Reference: PMC5218480 (PLoS ONE, 2017)

Tested on: MV-4-11 cells
Assay: Gene expression microarray analysis (Affymetrix PrimeView) and GSEA
Assay type: cell-based, human
Set-up: RFU PODN (11730768_x_at) / Fold change /veh PODN (11730768_x_at) / RFU LINC00158 (11744669_a_at) / Fold change /veh LINC00158 (11744669_a_at) / RFU DUSP10 (11751237_a_at) / Fold change /veh DUSP10 (11751237_a_at) / RFU ID3 (11757404_x_at) / Fold change /veh ID3 (11757404_x_at) / RFU PLEKHG5 (11737974_s_at) / Fold change /veh PLEKHG5 (11737974_s_at) / RFU LRRC4B (11730491_at) / Fold change /veh LRRC4B (11730491_at) / RFU GIMAP4 (11747438_a_at) / Fold change /veh GIMAP4 (11747438_a_at) / RFU KRT8 (11758183_x_at) / Fold change /veh KRT8 (11758183_x_at) / RFU CNN1 (11734310_a_at) / Fold change /veh CNN1 (11734310_a_at) / RFU VPS37D (11726825_at) / Fold change /veh VPS37D (11726825_at) / RFU C10orf10 (11716522_x_at) / Fold change /veh C10orf10 (11716522_x_at) / RFU KIR2DL2 /// KIR2DL4 /// KIR2DL5A /// KIR2DL5B /// KIR2DS1 /// KIR2DS2 /// KIR2DS3 /// KIR2DS4 /// KIR3DL3 /// KIR3DL3 /// KIR3DS1 (11738374_at) / Fold change /veh KIR2DL2 /// KIR2DL4 /// KIR2DL5A /// KIR2DL5B /// KIR2DS1 /// KIR2DS2 /// KIR2DS3 /// KIR2DS4 /// KIR3DL3 /// KIR3DL3 /// KIR3DS1 (11738374_at) / RFU C1QL1 (11718748_at) / Fold change /veh C1QL1 (11718748_at) / RFU TMPRSS4 (11747572_a_at) / Fold change /veh TMPRSS4 (11747572_a_at) / RFU HAMP (11756126_x_at) / Fold change /veh HAMP (11756126_x_at) / RFU RNFT2 (11725882_a_at) / Fold change /veh RNFT2 (11725882_a_at) / RFU NR4A2 (11747474_a_at) / Fold change /veh NR4A2 (11747474_a_at) / RFU ABCC12 (11746883_a_at) / Fold change /veh ABCC12 (11746883_a_at) / RFU TMEM136 (11760407_x_at) / Fold change /veh TMEM136 (11760407_x_at) / RFU CLDN22 /// WWC2 (11732394_at) / Fold change /veh CLDN22 /// WWC2 (11732394_at) / RFU HLA-DPB1 (11760878_x_at) / Fold change /veh HLA-DPB1 (11760878_x_at) / RFU SPINT1 (11716480_a_at) / Fold change /veh SPINT1 (11716480_a_at) / RFU GAP43 (11754022_s_at) / Fold change /veh GAP43 (11754022_s_at) / RFU A4GNT (11735810_at) / Fold change /veh A4GNT (11735810_at) / RFU PRB3 (11715151_x_at) / Fold change /veh PRB3 (11715151_x_at) / RFU TUBB4B (11761932_at) / Fold change /veh TUBB4B (11761932_at) / RFU CAPN14 (11732068_a_at) / Fold change /veh CAPN14 (11732068_a_at) / RFU TMCC2 (11721928_a_at) / Fold change /veh TMCC2 (11721928_a_at) / RFU IRGQ (11745062_a_at) / Fold change /veh IRGQ (11745062_a_at) / RFU FAM174B (11720279_a_at) / Fold change /veh FAM174B (11720279_a_at) / RFU TMPRSS4 (11748680_a_at) / Fold change /veh TMPRSS4 (11748680_a_at) / RFU FAM212B (11763350_a_at) / Fold change /veh FAM212B (11763350_a_at) / RFU PLEKHG5 (11743358_a_at) / Fold change /veh PLEKHG5 (11743358_a_at) / RFU ZSCAN30 (11745921_a_at) / Fold change /veh ZSCAN30 (11745921_a_at) / RFU CMKLR1 (11741424_a_at) / Fold change /veh CMKLR1 (11741424_a_at) / RFU LOC101060620 /// MAPK8IP1 (11723275_at) / Fold change /veh LOC101060620 /// MAPK8IP1 (11723275_at) / RFU SPTSSB (11747773_x_at) / Fold change /veh SPTSSB (11747773_x_at) / RFU PRSS12 (11739890_at) / Fold change /veh PRSS12 (11739890_at) / RFU BIN1 (11741810_x_at) / Fold change /veh BIN1 (11741810_x_at) / RFU WNT11 (11732464_a_at) / Fold change /veh WNT11 (11732464_a_at) / RFU C10orf10 (11716521_a_at) / Fold change /veh C10orf10 (11716521_a_at) / RFU C5orf56 (11738089_at) / Fold change /veh C5orf56 (11738089_at) / RFU CYB561 (11721691_x_at) / Fold change /veh CYB561 (11721691_x_at) / RFU ANKRD19P (11752326_a_at) / Fold change /veh ANKRD19P (11752326_a_at) / RFU OR2T12 /// OR2T33 /// OR2T8 (11738714_s_at) / Fold change /veh OR2T12 /// OR2T33 /// OR2T8 (11738714_s_at) / RFU VCAN (11748164_a_at) / Fold change /veh VCAN (11748164_a_at) / RFU JSRP1 (11732532_at) / Fold change /veh JSRP1 (11732532_at) / RFU KRTAP10-11 (11738290_x_at) / Fold change /veh KRTAP10-11 (11738290_x_at) / RFU MYO3A (11730013_a_at) / Fold change /veh MYO3A (11730013_a_at) / RFU EBF3 (11725865_a_at) / Fold change /veh EBF3 (11725865_a_at) / RFU CAMK2N1 (11719241_x_at) / Fold change /veh CAMK2N1 (11719241_x_at) / RFU C5orf56 (11738088_a_at) / Fold change /veh C5orf56 (11738088_a_at) / RFU OLFML3 (11715873_a_at) / Fold change /veh OLFML3 (11715873_a_at) / RFU LOC100653217 /// NTM (11731650_a_at) / Fold change /veh LOC100653217 /// NTM (11731650_a_at) / RFU MAPK11 (11762145_a_at) / Fold change /veh MAPK11 (11762145_a_at) / RFU FIZ1 (11724087_x_at) / Fold change /veh FIZ1 (11724087_x_at) / RFU OASL (11726364_x_at) / Fold change /veh OASL (11726364_x_at) / RFU SOX15 (11748057_x_at) / Fold change /veh SOX15 (11748057_x_at) / RFU CD79A (11719716_a_at) / Fold change /veh CD79A (11719716_a_at) / RFU HIST1H1D (11736915_at) / Fold change /veh HIST1H1D (11736915_at) / RFU CASKIN2 (11723855_a_at) / Fold change /veh CASKIN2 (11723855_a_at) / RFU LOC730098 (11760151_x_at) / Fold change /veh LOC730098 (11760151_x_at) / RFU OR4N2 (11742367_at) / Fold change /veh OR4N2 (11742367_at) / RFU PRRT2 (11749266_a_at) / Fold change /veh PRRT2 (11749266_a_at) / RFU SNX32 (11753110_a_at) / Fold change /veh SNX32 (11753110_a_at) / RFU CDHR5 (11726645_a_at) / Fold change /veh CDHR5 (11726645_a_at) / RFU RCAN1 (11760418_a_at) / Fold change /veh RCAN1 (11760418_a_at) / RFU FAM167A (11723789_a_at) / Fold change /veh FAM167A (11723789_a_at) / RFU FAM26E (11764081_at) / Fold change /veh FAM26E (11764081_at) / RFU ISYNA1 (11749810_s_at) / Fold change /veh ISYNA1 (11749810_s_at) / RFU ACY1 (11761880_at) / Fold change /veh ACY1 (11761880_at) / RFU 11764098_at / Fold change /veh 11764098_at / RFU SAMD14 (11745864_x_at) / Fold change /veh SAMD14 (11745864_x_at) / RFU NPB (11741838_a_at) / Fold change /veh NPB (11741838_a_at) / RFU TMPRSS6 (11731388_a_at) / Fold change /veh TMPRSS6 (11731388_a_at) / RFU KRTAP10-2 (11738614_at) / Fold change /veh KRTAP10-2 (11738614_at) / RFU ARHGAP8 /// PRR5-ARHGAP8 (11727945_x_at) / Fold change /veh ARHGAP8 /// PRR5-ARHGAP8 (11727945_x_at) / RFU KRTAP5-7 /// NADSYN1 (11734609_at) / Fold change /veh KRTAP5-7 /// NADSYN1 (11734609_at) / RFU RASL12 (11751679_a_at) / Fold change /veh RASL12 (11751679_a_at) / RFU CDKN2B (11736163_a_at) / Fold change /veh CDKN2B (11736163_a_at) / RFU PRF1 (11729649_at) / Fold change /veh PRF1 (11729649_at) / RFU, ZNF638 /// ZNF638-IT1 / Fold change vs veh, ZNF638 /// ZNF638-IT1 / RFU, PANK3 / Fold change vs veh, PANK3 / RFU, SH3YL1 / Fold change vs veh, SH3YL1 / RFU, ZEB2 / Fold change vs veh, ZEB2 / RFU, NRIP1 / Fold change vs veh, NRIP1 / RFU, PTTG1IP / Fold change vs veh, PTTG1IP / RFU, CAPN2 / Fold change vs veh, CAPN2 / RFU, MED14 / Fold change vs veh, MED14 / RFU, SNORA58 / Fold change vs veh, SNORA58 / RFU, C1orf63 / Fold change vs veh, C1orf63 / RFU, LRRFIP1 / Fold change vs veh, LRRFIP1 / RFU, NDUFAF7 / Fold change vs veh, NDUFAF7 / RFU, SLC12A2 / Fold change vs veh, SLC12A2 / RFU, IBTK / Fold change vs veh, IBTK / RFU, ESF1 / Fold change vs veh, ESF1 / Fold change vs veh, TMEM50B / RFU, TAOK1 / Fold change vs veh, TAOK1 / RFU, ACBD3 / Fold change vs veh, ACBD3 / RFU, TMA16 / Fold change vs veh, TMA16 / RFU, RWDD3 / Fold change vs veh, RWDD3 / RFU, BCAT1 / Fold change vs veh, BCAT1 / RFU, EDEM3 / Fold change vs veh, EDEM3 / RFU, TMEM33 / Fold change vs veh, TMEM33 / RFU, WDR75 / Fold change vs veh, WDR75 / RFU, AHCTF1 / Fold change vs veh, AHCTF1 / RFU, TFRC / Fold change vs veh, TFRC / RFU, ZDHHC17 / Fold change vs veh, ZDHHC17 / RFU, NOM1 / Fold change vs veh, NOM1 / RFU, ARL8B / Fold change vs veh, ARL8B / RFU, ZBTB11 / Fold change vs veh, ZBTB11 / RFU, TAMM41 / Fold change vs veh, TAMM41 / RFU, KIAA1704 /// LOC100996395 / Fold change vs veh, KIAA1704 /// LOC100996395 / RFU, ING1 / Fold change vs veh, ING1 / RFU, TRMT61B / Fold change vs veh, TRMT61B / RFU, FUBP3 / Fold change vs veh, FUBP3 / RFU, TP53 / Fold change vs veh, TP53 / RFU, TNKS2 / Fold change vs veh, TNKS2 / RFU, ZFP14 / Fold change vs veh, ZFP14 / RFU, ACTR2 / Fold change vs veh, ACTR2 / RFU, PPP3R1 / Fold change vs veh, PPP3R1 / RFU, PIK3R1 / Fold change vs veh, PIK3R1 / RFU, HNRNPA1 / Fold change vs veh, HNRNPA1 / RFU, RNF170 / Fold change vs veh, RNF170 / RFU, ZNF28 / Fold change vs veh, ZNF28 / RFU, RNGTT / Fold change vs veh, RNGTT / RFU, OGT / Fold change vs veh, OGT / RFU, BRD1 / Fold change vs veh, BRD1 / RFU, MARS / Fold change vs veh, MARS / RFU, ZNF655 / Fold change vs veh, ZNF655 / RFU, FAHD1 / Fold change vs veh, FAHD1 / RFU, BDP1 / Fold change vs veh, BDP1 / RFU, LRRCC1 / Fold change vs veh, LRRCC1 / RFU, ARID1A / Fold change vs veh, ARID1A / RFU, ZNF146 / Fold change vs veh, ZNF146 / RFU, ZNF330 / Fold change vs veh, ZNF330 / RFU, GPN3 / Fold change vs veh, GPN3 / RFU, C9orf123 / Fold change vs veh, C9orf123 / RFU, N4BP2L2 / Fold change vs veh, N4BP2L2 / RFU, ARFIP1 / Fold change vs veh, ARFIP1 / RFU, FAM179B / Fold change vs veh, FAM179B / RFU, BCL10 / Fold change vs veh, BCL10 / RFU, UHRF1BP1L / Fold change vs veh, UHRF1BP1L / RFU, BET1 / Fold change vs veh, BET1 / RFU, CNOT2 / Fold change vs veh, CNOT2 / RFU, ZNF268 / Fold change vs veh, ZNF268 / Fold change vs veh, ZNF507 / RFU, DGCR2 / Fold change vs veh, DGCR2 / RFU, WDSUB1 / Fold change vs veh, WDSUB1 / Fold change vs veh, HSP90B1 /// MIR3652 / RFU, ADSS / Fold change vs veh, ADSS / RFU, GK / Fold change vs veh, GK / RFU, ZNF148 / Fold change vs veh, ZNF148 / RFU, TAF9 / Fold change vs veh, TAF9 / RFU, SLC1A5 / Fold change vs veh, SLC1A5 / RFU, SLMO2 / Fold change vs veh, SLMO2 / RFU, ABCC4 / Fold change vs veh, ABCC4 / RFU, LOC101060439 /// RAP1B / Fold change vs veh, LOC101060439 /// RAP1B / RFU, RFX7 / Fold change vs veh, RFX7 / RFU, GTPBP10 / Fold change vs veh, GTPBP10 / RFU, CNEP1R1 / Fold change vs veh, CNEP1R1 / RFU, BIVM-ERCC5 /// ERCC5 / Fold change vs veh, BIVM-ERCC5 /// ERCC5 / RFU, ILF3 / Fold change vs veh, ILF3 / RFU 11762660_at / Fold change /veh 11762660_at / RFU VCAN (11757783_s_at) / Fold change /veh VCAN (11757783_s_at) / RFU DDX43 (11728927_at) / Fold change /veh DDX43 (11728927_at) / RFU KRT8 (11758188_x_at) / Fold change /veh KRT8 (11758188_x_at) / RFU NKD1 (11759106_at) / Fold change /veh NKD1 (11759106_at) / RFU SRD5A1 (11742802_a_at) / Fold change /veh SRD5A1 (11742802_a_at) / RFU TPSAB1 /// TPSB2 (11721975_s_at) / Fold change /veh TPSAB1 /// TPSB2 (11721975_s_at) / RFU GSTM3 (11746129_a_at) / Fold change /veh GSTM3 (11746129_a_at) / RFU IL23R (11737362_x_at) / Fold change /veh IL23R (11737362_x_at) / RFU TMEM51 (11727254_a_at) / Fold change /veh TMEM51 (11727254_a_at) / RFU PIWIL2 (11732686_x_at) / Fold change /veh PIWIL2 (11732686_x_at) / RFU ORM1 (11744905_x_at) / Fold change /veh ORM1 (11744905_x_at) / RFU CCDC152 (11743942_at) / Fold change /veh CCDC152 (11743942_at) / RFU ECM1 (11717891_a_at) / Fold change /veh ECM1 (11717891_a_at) / RFU IL23R (11748794_a_at) / Fold change /veh IL23R (11748794_a_at) / RFU TNFAIP8L3 (11732012_x_at) / Fold change /veh TNFAIP8L3 (11732012_x_at) / RFU MBOAT4 (11741988_at) / Fold change /veh MBOAT4 (11741988_at) / RFU 11764193_at / Fold change /veh 11764193_at / RFU TMEM53 (11763286_at) / Fold change /veh TMEM53 (11763286_at) / RFU MAGEB2 (11727129_at) / Fold change /veh MAGEB2 (11727129_at) / RFU TMEM200A (11744735_a_at) / Fold change /veh TMEM200A (11744735_a_at) / RFU CCDC152 (11751479_a_at) / Fold change /veh CCDC152 (11751479_a_at) / RFU FAM211A (11726209_a_at) / Fold change /veh FAM211A (11726209_a_at) / RFU RGS16 (11746705_a_at) / Fold change /veh RGS16 (11746705_a_at) / RFU VCAN (11755009_s_at) / Fold change /veh VCAN (11755009_s_at) / RFU RHOB (11743442_s_at) / Fold change /veh RHOB (11743442_s_at) / RFU RGS16 (11720943_a_at) / Fold change /veh RGS16 (11720943_a_at) / RFU RGS16 (11720944_at) / Fold change /veh RGS16 (11720944_at) / RFU, VPS4B / Fold change vs veh, VPS4B / RFU, CREB1 / Fold change vs veh, CREB1 / RFU, DNAJC13 / Fold change vs veh, DNAJC13 / RFU, GNAQ / Fold change vs veh, GNAQ / RFU, CDK5R1 / Fold change vs veh, CDK5R1 / RFU, ZRANB3 / Fold change vs veh, ZRANB3 / RFU, CUL4A / Fold change vs veh, CUL4A / RFU, CCNY / Fold change vs veh, CCNY / RFU, UFL1 / Fold change vs veh, UFL1 / RFU, COG3 / Fold change vs veh, COG3 / RFU, DIAPH2 / Fold change vs veh, DIAPH2 / RFU, SKA2 / Fold change vs veh, SKA2 / RFU, AFF3 / Fold change vs veh, AFF3 / RFU, LMF1 / Fold change vs veh, LMF1 / RFU, IPO11 / Fold change vs veh, IPO11 / RFU, DFFB / Fold change vs veh, DFFB / RFU, FOXP1 / Fold change vs veh, FOXP1 / RFU, CARD8 / Fold change vs veh, CARD8 / RFU, STRN3 / Fold change vs veh, STRN3 / RFU, ADK / Fold change vs veh, ADK / RFU, RASSF2 / Fold change vs veh, RASSF2 / RFU, WIPF1 / Fold change vs veh, WIPF1 / RFU, LARP1B / Fold change vs veh, LARP1B / RFU, RASA1 / Fold change vs veh, RASA1 / RFU, RB1 / Fold change vs veh, RB1 / RFU, PPFIA1 / Fold change vs veh, PPFIA1 / RFU, MAT2A / Fold change vs veh, MAT2A / RFU, CCT5 / Fold change vs veh, CCT5 / RFU, WDR92 / Fold change vs veh, WDR92 / RFU, CUX1 / Fold change vs veh, CUX1 / RFU, TTC7A / Fold change vs veh, TTC7A / RFU, TMEM135 / Fold change vs veh, TMEM135 / RFU, DEPTOR / Fold change vs veh, DEPTOR / RFU, CPM / Fold change vs veh, CPM / RFU, DNAJB6 / Fold change vs veh, DNAJB6 / RFU, CACNA2D3 / Fold change vs veh, CACNA2D3 / RFU, DTX4 / Fold change vs veh, DTX4 / RFU, TFCP2 / Fold change vs veh, TFCP2 / RFU, GMCL1 /// GMCL1P1 / Fold change vs veh, GMCL1 /// GMCL1P1 / RFU, AEBP2 / Fold change vs veh, AEBP2 / RFU, SNHG1 /// SNORD22 /// SNORD25 /// SNORD26 /// SNORD27 /// SNORD28 /// SNORD29 /// SNORD31 / Fold change vs veh, SNHG1 /// SNORD22 /// SNORD25 /// SNORD26 /// SNORD27 /// SNORD28 /// SNORD29 /// SNORD31 / Fold change (Aza/veh), C12orf56 (ProbeSet 11735607_a_at) / Fold change (ACY-1035/veh), C12orf56 (ProbeSet 11735607_a_at) / Fold change (Aza/veh), FGFR1OP (ProbeSet 11751329_s_at) / Fold change (ACY-1035/veh), FGFR1OP (ProbeSet 11751329_s_at) / Fold change (Aza/veh), VPS36 (ProbeSet 11739960_a_at) / Fold change (ACY-1035/veh), VPS36 (ProbeSet 11739960_a_at) / RFU SYPL1 (11715823_x_at) / Fold change /veh SYPL1 (11715823_x_at) / RFU IGFBP7 (11715501_s_at) / Fold change /veh IGFBP7 (11715501_s_at) / RFU REEP3 (11722064_at) / Fold change /veh REEP3 (11722064_at) / RFU IGLL1 (11728026_x_at) / Fold change /veh IGLL1 (11728026_x_at): dose or concentration left out as unconfirmed
Conditions: ProbeSet 11727641_at; LIST B

## Nc1ccc(-c2cccs2)cc1NC(=O)c1ccc2c(c1)cc(C1CC1)n2CCN1CCOCC1 [ACY-1035]
  RFU, NOM1: 160.01 RFU
